Like-named read-outs stand apart in the source and are kept apart here. Blank lines part the entries; values can stand above or below the compound they belong to.
Tests used:
[1] = Titration curves of buffers with standardized 0.1 N NaOH or HCl, pH meter; format: physicochemical; conditions: for pKa: distilled water; for buffering range in the presence of magnesium: magnesium added
Protocol: Aqueous solutions containing chlorine and/or hypochlorous acid are referred to herein as free active chlorine or “FAC” solutions, regardless of their method of preparation and without regard to other species that may be present. Concentrations of HOCl are reported herein as ppm active chlorine, as determined by colorimetry using N,N-diethyl-p-phenylenediamine (DPD) as indicator. Samples were diluted 999:1 with distilled water prior to addition of a DPD-1 tablet (Pollardwater, New Hyde Park, N.Y.) to a 10-ml sample, and the value for ppm chlorine was determined with a colorimeter (MW-10, Milwaukee Instruments, Rocky Mount, N.C.) Chloride concentrations were determined by agentometric (Mohr) titration. Titration curves were determined by dissolving 40 mg of buffer in 20 ml distilled water and adding standardized 0.1 N NaOH or HCl, with pH measured with a digital pH meter calibrated daily at pH 4.0. New and known buffers were synthesized by the cited literature methods, varying the starting materials as required.

[2] = cited from earlier work
[3] = forward titration with NaOH, no additive

Compound: O=P(O)(O)c1cccc(S(=O)(=O)O)c1 [3-phosphonobenzenesulfonic acid]
buffering from first phosphonate proton ([1]; no additive): 1.5-2 pH
moderate buffering from second phosphonate proton ([1]; no additive): 6.5-7.5 pH

Compound: O=P(O)(O)c1ccccc1 [Phenyphosphonic acid]
second pKa [2]: over 7

missing proton ([1]; after addition of calcium nitrate, back titration with HCl): present ant titratable
pH at which three protons are titrated [1, 3]: 2-4 pH
pH at which two protons are titrated [1, 3]: 7-11 pH
Compound: O=P(O)(O)c1cccc(P(=O)(O)O)c1P(=O)(O)O [benzene-1,2,3-triphosphonic acid]

buffering at pH 4-6 ([1]; pure triacid, no additive): completely absent
buffering at pH 4-6 ([1]; zinc nitrate added, back titration with HCl): present
Compound: O=P(O)(O)c1ccc(P(=O)(O)O)c(P(=O)(O)O)c1 [benzene-1,2,4-triphosphonic acid]

Compound: O=P(O)(O)c1ccccc1P(=O)(O)O [benzene-1,2-diphosphonic acid]
third pKa value ([1]; added strontium nitrate, compared to no additive): relatively unchanged
pKa ([1]; added strontium nitrate, read-out: first two pKa values): 3 to 4
pKa ([1]; added strontium nitrate, read-out: fourth pKa value): 9.5 to 10.5
pKa ([1]; magnesium sulfate present, read-out: fourth pKa): < 8
pKa ([1]; one equivalent of boric acid, read-out: third and fourth pKa values): 7 to 9
buffering from the fourth pKa / fourth pKa value ([1]; no additive): cannot be observed
extended buffering ([1]; one equivalent of boric acid, overlap with boric acid buffering): 8-9 pH

Compound: O=P(O)(O)c1cccc(P(=O)(O)O)c1 [benzene-1,3-diphosphonic acid]
pKa values observed ([1]; no additive): typical benzenephosphonic acid pKa values

pKa ([1]; zinc nitrate (2 equivalents) added prior to titration, read-out: third and fourth pKa values): 3.5 to 4.5
buffering range in the presence of magnesium [1]: 5-8 pH
buffering from the first two pKas / first two protons ([1]; no additive): 2-3 pH
buffering from the fourth pKa / fourth pKa value ([1]; no additive): 9-10 pH
buffering from the third pKa / third proton ([1]; no additive): 6-7 pH
Compound: O=P(O)(O)C(Cl)(Cl)P(=O)(O)O [clodronic acid, dichloromethanediphosphonic acid, reference compound]

Compound: O=P(O)(O)C(F)(F)C(F)(F)F [pentafluoroethylphosphonic acid]
buffering from the first pKa ([1]; no additive): 2.5-3.5 pH
buffering from the second pKa ([1]; no additive): 4-5 pH

Compound: O=P(O)(O)O [phosphate, phosphoric acid, reference compound]
buffering capacity in the pH range 3-6 ([1]; no additive): no buffering capacity
buffering capacity, lower range ([1]; no additive): 2-3 pH
buffering capacity, upper range ([1]; no additive): 7-8 pH

Compound: O=P(O)(O)c1cccc(P(=O)(O)O)n1 [pyridine-2,6-diphosphonic acid]
buffering range in the presence of magnesium [1]: 2-3 pH
buffering, titration with NaOH from pH 2 to 11 ([1]; no additive): only modest buffering

From patent publication US11317632B2, “Materials amd methods for buffering active chlorine solutions” (Pharmocon LLC, priority 2017, dated 2022)
